This is an account of results in publication PMC9246256, “Structure-based optimization of type III indoleamine 2,3-dioxygenase 1 (IDO1) inhibitors” (Journal of Enzyme Inhibition and Medicinal Chemistry, 2022).

The structures appear in SMILES notation.

For this experiment, the target named is T1, purified recombinant IDO1 (Homo sapiens, UniProt P14902).
T1 construct: Full-length human IDO1 gene was cloned into the pET-28a vector; inferred from pET-28a vector and HisTrap purification; made in house; host or cells: E. coli Rosetta (DE3)
T1 sequence (P14902 whole entry): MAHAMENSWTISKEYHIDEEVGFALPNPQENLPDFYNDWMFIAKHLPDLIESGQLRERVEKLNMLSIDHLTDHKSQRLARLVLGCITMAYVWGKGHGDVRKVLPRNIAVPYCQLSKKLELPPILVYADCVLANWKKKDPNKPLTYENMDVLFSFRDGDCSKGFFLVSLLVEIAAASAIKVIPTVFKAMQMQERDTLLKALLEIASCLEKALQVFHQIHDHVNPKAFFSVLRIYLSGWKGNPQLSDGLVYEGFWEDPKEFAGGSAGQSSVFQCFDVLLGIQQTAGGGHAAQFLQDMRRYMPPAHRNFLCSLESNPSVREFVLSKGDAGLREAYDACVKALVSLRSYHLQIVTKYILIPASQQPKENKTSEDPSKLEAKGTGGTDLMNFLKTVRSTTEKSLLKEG
The experiment can be described thus: Enzymatic IDO1 inhibition assay (ascorbate/methylene blue reduction system, HPLC detection of kynurenine). Particulars: for LE [kcal/mol/HA]: ligand efficiency, LE = -RT log(IC50)/number of heavy atoms, from enzymatic IC50; for IC50: enzymatic, L-Trp 100 µM, 0.01% Triton X-100, 5% DMSO, 20 min at room temperature, pH 6.5, duplicates, read-out: IC50 [ μ M] (SD). In kind it is biochemical.

With `Nc1ccc(Br)cc1-c1nnc[nH]1` [Compound 12], the “LE [kcal/mol/HA]” value is on record as 0.80 kcal/mol/HA. For `Oc1ccc(-c2c[nH]nn2)cc1` [Compound 20, 4–(1,2,3-Triazol-4-yl)phenol], the IC50 is more than 1000 µM. For `Cc1cccc(-c2cnn[nH]2)c1` [Compound 21], the “LE [kcal/mol/HA]” value is given as 0.53 kcal/mol/HA. `CCc1cccc(-c2cnn[nH]2)c1` [Compound 22]: the “LE [kcal/mol/HA]” value is 0.51 kcal/mol/HA. Take `CC(C)c1cccc(-c2c[nH]nn2)c1` [Compound 23, 4–(3-Isopropylphenyl)-1,2,3-triazole]: the IC50 was 280 µM and the “LE [kcal/mol/HA]” value was 0.35 kcal/mol/HA. With `CCCCc1cccc(-c2c[nH]nn2)c1` [Compound 24, 4–(3-Butylphenyl)-1,2,3-triazole], the IC50 was 34 µM and the “LE [kcal/mol/HA]” value is given as 0.41 kcal/mol/HA.

On to `c1ccc(COc2ccccc2-c2c[nH]nn2)cc1` [Compound 25, 4–(2-Benzyloxyphenyl)-1,2,3-triazole], for which the 50% inhibitory concentration (IC50) was more than 500 µM. As to `Oc1ccc(CCc2ccccc2)cc1-c1cnn[nH]1` [Compound 39, 4-Phenylethyl-2-(1H-1,2,3-triazol-5-yl)phenol], the IC50 amounted to 160 µM and the “LE [kcal/mol/HA]” value amounted to 0.26 kcal/mol/HA.

In the case of `COc1cccc(OC)c1-c1c[nH]nn1` [Compound 45, 4–(2,6-Dimethoxyphenyl)-1,2,3-triazole], the IC50 is more than 1000 µM. `Clc1ccc(Cl)c(-c2cnn[nH]2)c1` [Compound 46]: the “LE [kcal/mol/HA]” value is on record as 0.54 kcal/mol/HA. `Clc1cc(Cl)cc(-c2c[nH]nn2)c1` [Compound 50, 4–(3,5-Dichlorophenyl)-1,2,3-triazole]: the 50% inhibitory concentration (IC50) is 58 µM and the “LE [kcal/mol/HA]” value was determined as 0.44 kcal/mol/HA. Take `Clc1cccc(Cl)c1-c1c[nH]nn1` [Compound 51, 4–(2,6-Dichlorophenyl)-1,2,3-triazole]: the IC50 stood at 280 µM and the “LE [kcal/mol/HA]” value came out at 0.37 kcal/mol/HA. As for `N#Cc1[nH]nnc1-c1ccccc1` [Compound 62, 4-Phenyl-1H-1,2,3-triazole-5-carbonitrile], the IC50 worked out at 630 µM and the “LE [kcal/mol/HA]” value came to 0.34 kcal/mol/HA.

In the case of `Cc1[nH]nnc1-c1cccc(Cl)c1` [Compound 63, 4–(3-Chlorophenyl)-5-methyl-1,2,3-triazole], the IC50 was more than 1000 µM. Turning to `NC(=O)c1[nH]nnc1-c1cc(Cl)ccc1O` [Compound 67], the IC50 is more than 1000 µM. `c1ccc(Nc2cnn[nH]2)cc1` [Compound 79]: the IC50 is more than 100 µM.

In the case of `c1ccc(Nc2[nH]nnc2-c2ccccc2)cc1` [Compound 80], the IC50 was more than 250 µM. Same read-out and setting: the same measure for `c1ccc(Oc2cnn[nH]2)cc1` [Compound 82, 4-(Phenoxy)-1,2,3-triazole]: more than 1000 µM. On to `c1ccc(Sc2c[nH]nn2)cc1` [Compound 83, 4-(Phenylthio)-1,2,3-triazole], for which the IC50 worked out at 590 µM and the “LE [kcal/mol/HA]” value worked out at 0.37 kcal/mol/HA. As for `O=S(=O)(c1ccccc1)c1c[nH]nn1` [Compound 84, 4-(Phenylsulfonyl)-1H-1,2,3-triazole], the IC50 was more than 1000 µM. Take `OC(c1ccccc1)c1c[nH]nn1` (stereo not shown) [Compound 85, Phenyl(1,2,3-triazol-4-yl)methanol]: the IC50 is more than 1000 µM.

Take `O=C(Nc1ccccc1)c1cn[nH]n1` [Compound 86, N-Phenyl-1H-1,2,3-triazole-4-carboxamide]: the IC50 was more than 1000 µM.

Turning to `CON=C(c1ccccc1)c1c[nH]nn1` [Compound 87, Phenyl(1H-1,2,3-triazol-4-yl)methanone O-methyl oxime], the IC50 is more than 1000 µM. Consider `c1ccc2c(c1)ccc1nn[nH]c12` [Compound 88], for which the IC50 is more than 100 µM. `c1ccc2c(c1)Cc1n[nH]nc1-2` [Compound 89, 3,8-Dihydroindeno[1,2-d][1,2,3]triazole]: the IC50 was more than 1000 µM. Turning to `O=C(c1ccccc1)c1cnn[nH]1` [Compound 99, Phenyl(1H-1,2,3-triazol-5-yl)methanone], the IC50 was 430 µM and the “LE [kcal/mol/HA]” value is on record as 0.35 kcal/mol/HA.
